{"source": "patent US20230235316A1", "about": "“MODEL FOR INSULIN RESISTANCE” (CHILDREN'S HOSPITAL MEDICAL CENTER, priority 2020, published 2023)", "assay_type_in_all_cases": "cell-based, human", "key": {"fatty liver HLO [1]": {"tested_on": "fatty liver HLO", "experiment": "Drug screening in fatty liver HLO: inflammatory gene expression", "details": "HLO treated with fatty acids for 6 days; drug exposure 48 hours", "description": "(§1) HLO were treated with fatty acids for 6 days to induce a fatty liver phenotype. Then, candidate drugs were exposed to the sHLO for 48 hours."}, "fatty liver HLO [2]": {"tested_on": "fatty liver HLO", "experiment": "Drug screening in fatty liver HLO: fat accumulation", "details": "HLO treated with fatty acids for 6 days; drug exposure 48 hours", "description": "as §1"}, "HLO": {"tested_on": "HLO", "experiment": "Fatty acid induction of steatohepatitis phenotype in HLOs", "details": "300 µM oleic acid for 72 hours", "text": "Fatty acid treatment induces a steatohepatitis phenotype in HLOs. […] DGAT½, which catalyzes the formation of triglycerides from diacylglycerol and acyl-CoA, was increased in sHLO relative to normal HLOs (FIG. 7D)."}, "[3]": {"tested_on": "AKT phosphorylation in HLOs", "experiment": "AKT phosphorylation in HLOs after insulin (Western blot)", "details": "HLOs insulin-starved 24 hours; insulin 0, 10 and 100 ng/mL for 20 minutes", "description": "(§2) Insulin responsiveness of HLOs was analyzed using Western blotting and qPCR. The prepared HLOs were cultured under insulin starvation for 24 hours and then exposed to insulin.\nTo analyze phosphorylation of AKT activated downstream of insulin signaling. HLOs were treated with insulin at 0 ng/mL, 10 ng/mL and 100 ng/mL for 20 minutes, and then proteins were extracted for Western blot."}, "PCK1 reporter HLOs": {"tested_on": "PCK1 reporter HLOs", "experiment": "PCK1 reporter (mScarlet fluorescence / luciferase) HLOs", "text": "To visualize and quantify HLO insulin responsiveness, iPSCs were genetically edited using the CRISPR/Cas9 system to insert a reporter construct comprising mScarlet (fluorescence) and luciferase (luminescence) genes downstream of the gluconeogenesis regulatory gene PCK1, at the 3′ end in exon 10 (FIG. 5A). FIG. 5A also depicts a schematic of the reporter function. […] When gluconeogenesis is suppressed by exposure to insulin, the expression of mScarlet and luciferase also decreases in correlation with the downregulation of PCK1. […] However, it is envisioned that other reporter constructs, such as those using alternative reporters, can be used. Furthermore, alternative insulin pathway regulatory genes are depicted in FIG. 3C to be used in lieu of PCK1.\nHuman iPSCs were gene edited to insert the fluorescence and luminescence reporter construct to the 3′ end of PCK1. […] These gene edited iPSCs were subsequently differentiated into HLOs. […] Subsequently, 100 ng/mL of insulin was applied for 3 hours, and fluorescence and luciferase activity were measured. […] FIGS. 6C-D depicts the detection of PCK1-luciferase luminescence as measured by in vitro imaging.\nThe effect of insulin concentration was tested. PCK1-luciferase HLOs were starved of insulin for 24 hours and then treated with 0 nM, 10 nM, 100 nM, or 1000 nM of insulin for 1 hour for luciferase imaging.\nThe effect of insulin treatment time was tested. Insulin starved HLOs were treated with 100 nM of insulin for 1, 2, or 3 hours (with no insulin control)."}, "HLOs": {"tested_on": "HLOs", "experiment": "qPCR of gluconeogenesis and lipogenesis regulator genes in insulin-treated HLOs", "details": "HLOs insulin-starved 24 hours, insulin 100 ng/mL for 8 hours", "description": "as §2\nTo analyze insulin responsiveness of gluconeogenesis and lipogenesis regulator genes in HLOs, they were treated with insulin at 100 ng/mL for 8 hours, and then RNA was extracted for qPCR. In the insulin-treated HLOs, gluconeogenesis regulatory gene expression (FOXO1, CREB1, TFE1, PCK1) was suppressed by insulin stimulation (FIG. 4B). Conversely, lipogenesis regulatory gene expression (SREBP, FASN, ACLY, ACC) was induced by insulin stimulation (FIG. 4C)."}, "sHLO": {"tested_on": "sHLO", "experiment": "Insulin responsiveness in sHLO (Western blot, gene expression, PCK1, glucose production)", "description": "Insulin responsiveness in the sHLO was examined. To detect insulin responsiveness, insulin starvation of sHLO and HLO controls was performed for 24 hours, followed by insulin stimulation.\nInsulin signal analysis by Western blot was performed by treating with 100 nM insulin for 20 minutes. […] Insulin responsiveness of PCK1, CREB 1, and FOXO1 was not suppressed in sHLO (FIGS. 7J-K). […] Furthermore, glucose production was not inhibited after insulin stimulation in sHLO (FIG. 7L)."}}, "note": "“Also recorded” adds a separate entry of the source."}
{"compound": "CN(C)C(=N)N=C(N)N", "note": "[metformin]", "values": [{"measurement": "inflammatory gene expression (TNFa, NFKB1, NFKB2) / inflammatory response", "setting": "fatty liver HLO [1]", "result": "limited improvement"}, {"measurement": "fat accumulation", "setting": "fatty liver HLO [2]", "result": "improvement"}]}
{"compound": "CCCCCCCC/C=C\\CCCCCCCC(=O)O", "note": "[oleic acid]", "values": [{"measurement": "fat accumulation", "setting": "HLO", "result": "induces fat accumulation"}]}
{"compound": "insulin", "values": [{"measurement": "AKT phosphorylation", "setting": "[3]", "result": "induces AKT phosphorylation"}, {"measurement": "PCK1-mScarlet fluorescence and luciferase activity", "setting": "PCK1 reporter HLOs; 100 ng/mL insulin for 3 hours after treatment with cAMP", "result": "downregulation; also recorded: decreased"}, {"measurement": "luciferase activity of PCK1", "setting": "PCK1 reporter HLOs; HLOs insulin-starved 24 hours, 10 nM, 100 nM or 1000 nM insulin for 1 hour", "result": "decreased"}, {"measurement": "PCK1-luciferase activity", "setting": "PCK1 reporter HLOs; cAMP-treated HLOs, 100 nM insulin for 3 hours", "result": "inhibited"}, {"measurement": "luciferase activity of PCK1", "setting": "PCK1 reporter HLOs; insulin-starved HLOs, 100 nM insulin for 1, 2 or 3 hours", "result": "reduced after 1 hour of treatment"}, {"measurement": "gluconeogenesis regulatory gene expression (FOXO1, CREB1, TFE1, PCK1)", "setting": "HLOs", "result": "suppression; also recorded: suppressed"}, {"measurement": "lipogenesis regulatory gene expression (SREBP, FASN, ACLY, ACC)", "setting": "HLOs", "result": "induction; also recorded: induced"}, {"measurement": "glucose production", "setting": "sHLO; sHLO after insulin stimulation", "result": "not affected; also recorded: not inhibited"}, {"measurement": "insulin response of PCK1 and other gluconeogenesis genes", "setting": "sHLO; sHLO insulin-starved 24 hours, then insulin stimulation", "result": "not responsive"}, {"measurement": "phosphorylation of AKT", "setting": "sHLO; sHLO insulin-starved 24 hours, 100 nM insulin for 20 minutes, Western blot", "result": "inhibited in sHLO"}]}
